Assay: xn = mol fraction of the nth substance listed
Conditions: 288.15 K, Liquid, Vibrating tube method

COC(=O)OC [dimethyl carbonate] + CCCO
mass density [kg/m3]
Conditions	25000 kPa	30000 kPa	35000 kPa	40000 kPa
x1 = 0.0273	–	835.17	838.02	840.76
x1 = 0.0506	–	842.03	844.93	847.68
x1 = 0.0755	–	849.38	852.29	855.09
x1 = 0.1007	–	856.69	859.6	862.4
x1 = 0.1495	–	870.78	873.75	876.61
x1 = 0.2003	–	885.32	888.35	891.27
x1 = 0.2529	–	900.28	903.32	906.24
x1 = 0.2993	–	913.34	916.38	919.36
x1 = 0.3497	–	927.39	930.49	933.52
x1 = 0.401	–	941.6	944.76	947.8
x1 = 0.4509	–	955.29	958.51	–
x1 = 0.5002	–	968.75	971.97	–
x1 = 0.5498	–	982.22	985.5	–
x1 = 0.5996	–	995.65	998.94	–
x1 = 0.6499	–	1009.15	1012.45	–
x1 = 0.7006	1019.07	1022.61	1025.92	–
x1 = 0.7471	1031.24	1034.8	1038.16	–
x1 = 0.7989	1044.87	1048.43	1051.8	–
x1 = 0.8491	1057.97	1061.59	1065.02	–
x1 = 0.8993	1071.18	1074.81	1078.24	–
x1 = 0.9249	1077.81	1081.44	1084.88	–
x1 = 0.9489	1083.9	1087.54	1091.03	–
x1 = 0.9743	1090.45	1094.08	1097.53	–
x1 = 1	1096.99	1100.63	1104.08	–

Reference: the NIST ThermoML archive (doi:10.1016/j.jct.2019.02.011)
